From article PMC10065799, “High-throughput profiling of sequence recognition by tyrosine kinases and SH2 domains using bacterial peptide display” (eLife, 2023)
Square brackets hold non-standard residues; d marks the D form. * marks the point of attachment. FITC = O=C1OC2(c3ccc(O)cc3Oc3cc(O)ccc32)c2ccc(NC(=S)*)cc21; pY = N[C@@H](Cc1ccc(OP(=O)(O)O)cc1)C(=O)O; Ahx = NCCCCCC(=O)O

What was measured:
c-Abl kinase domain [1] = molecular target: T1, c-Abl kinase domain (Mus musculus, UniProt P00520); assay: RP-HPLC assay to measure peptide phosphorylation kinetics; format: biochemical; conditions: purified peptide substrate
T1 sequence (P00520 242-493 limits assumed): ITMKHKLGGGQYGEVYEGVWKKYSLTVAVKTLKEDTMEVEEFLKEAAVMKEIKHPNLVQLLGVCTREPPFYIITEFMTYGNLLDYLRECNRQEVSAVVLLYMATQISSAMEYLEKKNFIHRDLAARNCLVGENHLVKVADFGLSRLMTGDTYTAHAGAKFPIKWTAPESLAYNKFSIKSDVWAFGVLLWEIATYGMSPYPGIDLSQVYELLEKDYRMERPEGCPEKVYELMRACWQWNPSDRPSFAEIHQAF

c-Src kinase domain [2] = molecular target: T2, c-Src kinase domain (Homo sapiens, UniProt P12931); assay: pTyr-Var library bacterial peptide display kinase screen (enrichment scores); format: biochemical; conditions: for Screen: sheet "Src", effect of the variant peptide relative to its reference peptide in the pTyr-Var library screen;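 on screen: log2 fold change in enrichment of variant over reference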
EPHB1 kinase domain [3] = assay: as above; format: biochemical, human
EPHB2 kinase domain = assay: as above; format: biochemical, human
Fyn kinase domain = assay: as above; format: biochemical, human
Hck kinase domain = assay: as above; format: biochemical, human; conditions: enrichment score
c-Abl kinase domain [4] = molecular target: T1, c-Abl kinase domain; assay: as above; format: biochemical
Jak2 = assay: as above; format: biochemical, human
AncSZ kinase domain = assay: as above; format: biochemical
Fer kinase domain = assay: as above; format: biochemical, mouse
Fes = assay: as above; format: biochemical; conditions: mean of log2 of enrichment over R1-R6
FGFR1 kinase domain = assay: as above; format: biochemical, human
FGFR3 kinase domain = assay: as above; format: biochemical, human
MERTK kinase domain = assay: as above; format: biochemical, human
[5] = system: 4G10 Platinum pan-phosphotyrosine antibody; assay: Phosphorylated pTyr-Var library selection with biotinylated pan-phosphotyrosine antibody; format: binding, mouse; conditions: enrichment score, sheet SH2-vs-peptide
Protocol: After the desired time of library phosphorylation, kinase activity was quenched with 25 mM EDTA and the cells were washed with PBS containing 0.2% BSA. Kinase-treated cells were then labeled with a 1:1000 dilution of biotinylated 4G10 Platinum anti-phosphotyrosine antibody (Millipore) for an hour on ice and washed with PBS containing 0.1% BSA and 2 mM EDTA (isolation buffer). The cells were finally resuspended in PBS containing 0.1% BSA. The phosphorylated, antibody-labeled cells were then mixed with magnetic beads from Dynabeads FlowComp Flexi kit (Invitrogen), at a ratio of 37.5 μL of washed beads per 50 μL of cell suspension, diluted into 450 μL of isolation buffer. The suspension was rotated at 4 °C for 30 minutes, then 375 μL of isolation buffer was added and the beads were separated from the bulk solution on a magnetic rack. The beads were washed once with 1 mL of isolation buffer, and then the supertantant were removed by aspiration. […] The bead/lysate mixture was centrifuged to pellet the beads and the mixture was stored at -20 °C.

c-Src SH2 domain = c-Src SH2 domain (Homo sapiens, UniProt P12931); assay: pTyr-Var library SH2 domain screen with SH2-dynabeads (enrichment scores); conditions: sheet c-Src
SHP2 C-SH2 domain = assay: as above
Grb2 SH2 domain = assay: as above
c-Src kinase domain [6] = molecular target: T2, c-Src kinase domain; assay: RP-HPLC assay to measure peptide phosphorylation kinetics; format: biochemical; conditions: purified peptide substrate
Protocol: To validate the enrichment scores observed in the c-Src screening data, the phosphorylation rates were measured in vitro with the purified catalytic domain of c-Src and synthetic 11-residue peptides derived from sequences in the pTyr-Var library. […] Reactions were initiated by adding 1 mM ATP. At various time points, 100 μL aliquots were removed and quenched by the addition of EDTA to a final concentration of 25 mM. Each time point sample was analyzed by analytical RP-HPLC, monitoring absorbance at 214 nm. Forty μL of each time point was injected onto a C18 column (ZORBAX 300 SB-C18, 5 μm, 4.6x150 mm). The solvent system used was water with 0.1% trifluoroacetic acid (solvent A) and acetonitrile with 0.1% trifluoroacetic acid (solvent B). […] The fractional product peak area was plotted as a function of reaction time, and the initial linear regime of this plot was fitted to a straight line to determine a reaction rate. Rates were corrected for substrate and enzyme concentration. Reactions were done in triplicate or quadruplicate.

EPHB1 kinase domain [7] = assay: ADP-Quest continuous fluorimetric kinase assay (initial rates of consensus peptides); format: biochemical, human; conditions: peptide 100 or 20 μM, kinase 10–50 nM; Figure 2C and supplement 2
Excerpt: A fluorescence-based assay from Eurofins (ADP Quest) was used to measure the Michaelis-Menten kinetic parameters for phosphorylation of the consensus peptides by purified tyrosine kinase domains. In this assay, ADP production as a result of kinase activity is coupled to the production of resorufin, a fluorophore that emits signal at 590 nm. For all experiments, the assay reactions were set up as described in the provided assay kit protocol, in a 384 well plate format. The peptide solutions were serially diluted in 100 mM Tris, pH 8.0, and the kinases were diluted to 50 nM in buffer (10 mM HEPES, 100 mM NaCl, 1 mM TCEP, 5 mM MgCl2, 10% (v/v) glycerol). The final reaction mixtures contained 10 nM of kinase with 100 μM of ATP. […] Phosphorylation reaction progress was monitored by measuring fluorescence at excitation 530 nm and emission 590 nm every 2 min at 37 °C on a plate reader (BioTek Synergy Neo 2). The fluorescence units (RFU) were converted to μM ADP by comparison to a standard curve, and the initial rates were extracted from the linear regime of the reaction progress curves. Initial rates were also measured for samples containing each kinase but lacking a peptide substrate, to account for background ATP hydrolysis. This background rate was subtracted from the rates measured in the presence of peptide. […]

[8] = molecular target: mouse c-Abl kinase domain (residues 232-502) (mouse) (UniProt P00520)
[9] = molecular target: human c-Src SH2 domain (residues 143-250) (human, UniProt P12931-1 143-250, biotin on the Avi tag (co-expression with the biotin ligase BirA)); assay: fluorescence polarisation; direct titration: varying concentrations of c-Src SH2 with 30 nM fluorescent peptide, 15 min; 60 mM HEPES pH 7.2, 75 mM KCl, 75 mM NaCl, 1 mM EDTA, 0.05% Tween 20; 25 °C; quadratic binding equation; conditions: both partners purified
[10] = mean of log2 of enrichment over R1-R4
[11] = pTyr-Var library, enrichment score, replicate 1
[12] = pTyr-Var library, enrichment score, replicate 3
[13] = pTyr-Var library, enrichment score, replicate 4
[14] = mean of log2 enrichment of reference peptide, n = 5
[15] = pTyr-Var library, reference peptide enrichment, mean of n = 5
[16] = mean of log2 enrichment of reference peptide, n = 4
[17] = pTyr-Var library, reference peptide enrichment, mean of n = 4
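Wherever screen is given: log2 fold change in enrichment of variant over reference.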

mouse c-Abl kinase domain (residues 232-502) (mouse), sequence (P00520 232-502): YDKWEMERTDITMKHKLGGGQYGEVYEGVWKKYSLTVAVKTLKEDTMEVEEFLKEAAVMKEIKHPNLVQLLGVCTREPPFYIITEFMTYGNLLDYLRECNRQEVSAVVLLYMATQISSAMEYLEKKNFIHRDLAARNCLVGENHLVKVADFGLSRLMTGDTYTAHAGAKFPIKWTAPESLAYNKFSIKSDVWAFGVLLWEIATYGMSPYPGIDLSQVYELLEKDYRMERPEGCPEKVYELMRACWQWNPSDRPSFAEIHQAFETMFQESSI

## Ac-GNLLIYTELGK-NH2 [HGD_Y166_F169L, pTyr-Var library variant peptide, non-canonical c-Abl substrate]
c-Abl kinase domain [1]
  Phosphorylation Rate: 0.238 s⁻¹
c-Src kinase domain [2]
  Screen: -0.3242
EPHB1 kinase domain [3]; sheet EPHB1, effect of the variant peptide relative to its reference peptide in the pTyr-Var library screen (enrichment scores)
  Screen: 1.156
EPHB2 kinase domain; sheet EPHB2, effect of variant peptide relative to its reference peptide in the pTyr-Var library screen (enrichment scores)
  Screen: 1.177

## LRVGFYESDVM [A2M_Y708]
c-Src kinase domain [2]; [10]
  c-Src mean of log2(enrichment): 0.391
c-Src kinase domain [2]; [11]
  c-Src enrich. R1: 1.08
c-Src kinase domain [2]; [12]
  c-Src enrich. R3: 1.298
c-Src kinase domain [2]; [13]
  c-Src enrich. R4: 1.223
Fyn kinase domain; [10]
  Fyn mean of log2(enrichment): -0.1485
Fyn kinase domain; [11]
  Fyn enrich. R1: 1.939
Fyn kinase domain; [12]
  Fyn enrich. R3: 1.639
Fyn kinase domain; [13]
  Fyn enrich. R4: 0.1487
Hck kinase domain; replicate 1
  Hck enrich. R1: 1.102
Hck kinase domain; replicate 3
  Hck enrich. R3: 1.0148
Hck kinase domain; replicate 4
  Hck enrich. R4: 0.9933
c-Abl kinase domain [4]; [10]
  c-Abl mean of log2(enrichment): 0.8901
c-Abl kinase domain [4]; [11]
  c-Abl enrich. R1: 1.339
c-Abl kinase domain [4]; [12]
  c-Abl enrich. R3: 1.7654
c-Abl kinase domain [4]; [13]
  c-Abl enrich. R4: 2.061
Jak2; mean of log2 of enrichment over R1-R3
  Jak2 mean of log2(enrichment): 0.9825
Jak2; pTyr-Var library, enrichment score, mean of replicates R1-R3
  Jak2 enrichment (mean): 2.035
Jak2; [11]
  Jak2 enrich. R1: 2.166
Jak2; [12]
  Jak2 enrich. R3: 1.407
AncSZ kinase domain; mean of log2 of enrichment over R1-R5
  AncSZ mean of log2(enrichment): 1.515
AncSZ kinase domain; [12]
  AncSZ enrich. R3: 3.27
AncSZ kinase domain; [13]
  AncSZ enrich. R4: 3.639
AncSZ kinase domain; pTyr-Var library, enrichment score, replicate 5
  AncSZ enrich. R5: 3.918
Fer kinase domain; [10]
  Fer mean of log2(enrichment): 0.6409
Fer kinase domain; [11]
  Fer enrich. R1: 1.74
Fer kinase domain; [12]
  Fer enrich. R3: 2.063
Fer kinase domain; [13]
  Fer enrich. R4: 1.716
Fes
  Fes mean of log2(enrichment): 1.487
FGFR1 kinase domain; [14]
  mean of log2(reference): 0.2144
FGFR1 kinase domain; [15]
  ref. mean: 1.392
FGFR3 kinase domain; [14]
  mean of log2(reference): 1.27
FGFR3 kinase domain; [15]
  ref. mean: 2.887
EPHB1 kinase domain [3]; [16]
  mean of log2(reference): 0.89
EPHB1 kinase domain [3]; pTyr-Var library, enrichment score, mean of replicates
  EPHB1 enrichment (mean): 1.865
EPHB1 kinase domain [3]; [17]
  ref. mean: 1.865
EPHB2 kinase domain; [16]
  mean of log2(reference): -0.3867
EPHB2 kinase domain; [17]
  ref. mean: 0.9336
MERTK kinase domain; [16]
  mean of log2(reference): 1.359
MERTK kinase domain; [17]
  ref. mean: 2.61
[5]
  4G10 (mean): 1.415
c-Src SH2 domain; mean of log2 enrichment of reference peptide, R1-R3
  mean of log2(reference): 2.001
c-Src SH2 domain; reference peptide, mean of R1-R3
  ref. mean: 4.137
SHP2 C-SH2 domain; SHP2-C SH2, mean of log2 enrichment of reference, R1-R3
  mean of log2(reference): 0.01184
SHP2 C-SH2 domain; reference peptide enrichment score, SHP2-C SH2, mean of R1-R3
  ref. mean: 1.018
Grb2 SH2 domain; Grb2 SH2, mean of log2 enrichment of reference, R1-R3
  mean of log2(reference): -0.1031
Grb2 SH2 domain; reference peptide enrichment score, Grb2 SH2, mean of R1-R3
  ref. mean: 0.9341

## Ac-IGEGTYRQVFK-NH2 [CDK13_Y716_G717R_YF, pTyr-Var library variant phosphosite peptide]
c-Src kinase domain [6]
  Phosphorylation Rate: 0.195 s⁻¹
c-Src kinase domain [2]
  Screen: -4.535

## Ac-GPPEPNYEVIPPKKKG-NH2 [EPHB1 Consensus, EPHB1 consensus substrate peptide from X5-Y-X5 screen]
EPHB1 kinase domain [7]
  phosphorylation of consensus peptide by EPHB1 (initial rate relative to cognate consensus): did not prefer

## Ac-IGEGTYGQVFK-NH2 [CDK13_Y716_YF]
c-Src kinase domain [6]
  Phosphorylation Rate: 3.100 s⁻¹

## Ac-IGEGTYGTVFK-NH2 [CDK5-Y15]
c-Src kinase domain [6]
  Phosphorylation Rate: 2.587 s⁻¹
c-Abl kinase domain [1]
  Phosphorylation Rate: 0.085 s⁻¹

## Ac-GPDEPIYAVPPIKKKG-NH2 [Abl Consensus peptide Ac-…-NH2]
[8]
  KM (μM) of phosphorylation, Michaelis-Menten analysis, ADP-Quest assay: 6 µM

B1: fluorescently-labeled c-Src-SH2 consensus peptide FITC-Ahx-GDG(pY)EEISPLLL-NH2 (peptide)
peptide: {FITC-Ahx}-GDG[pY]EEISPLLL-NH2
SMILES: CC[C@H](C)[C@H](NC(=O)[C@H](CCC(=O)O)NC(=O)[C@H](CCC(=O)O)NC(=O)[C@H](Cc1ccc(OP(=O)(O)O)cc1)NC(=O)CNC(=O)[C@H](CC(=O)O)NC(=O)CNC(=O)CCCCCNC(=S)Nc1ccc2c(c1)C(=O)OC21c2ccc(O)cc2Oc2cc(O)ccc21)C(=O)N[C@@H](CO)C(=O)N1CCC[C@H]1C(=O)N[C@@H](CC(C)C)C(=O)N[C@@H](CC(C)C)C(=O)N[C@@H](CC(C)C)C(N)=O
notes: also called fluorescent peptide; source: gift from the Amacher lab (Western Washington University)
[9]
  Kd: 160 nM
